The values below come from patent US20230390315A1, “COMPOSITIONS AND METHODS FOR TREATING ISCHEMIC CONDITIONS” (The Regents of the University of California, priority 2020, published 2023).

SMILES strings stand for the structures.

Data set [1] relates to bovine retinal microvascular endothelial cells (BREC). Put plainly: BREC proliferation assay. It counts as cell-based. On the procedure: Proliferation assays with BCECs and BRECs were performed. Log-phase growing BCECs or BRECs (passage <10) were trypsinized, re-suspended and seeded in 96-well plates (no coating) in low-glucose DMEM supplemented with 10% bovine calf serum, 2 mM glutamine, and antibiotics (growth medium), at a density of 1200-1500 cells per well in 200 μl volume. All reagents were added at the indicated final concentrations. After 3-6 days, cells were incubated with AlamarBlue for 4 hrs. Fluorescence was measured at 530 nm excitation wavelength and 590 nm emission wavelength. The experiments were repeated at least three times. To create a hypoxic condition, cells were placed in a hypoxia incubator with a mixture of gas consisting of 1% 02, 5% CO2 and 94% Nz. On each 96-well plate, untreated and VEGF-treated (10/ng/ml) wells were included to monitor plate-to-plate variations. 20% methanol or 0.05% DMSO served as negative controls. 0.05% DMSO served as negative controls when Cas was tested in these cells. Human RMVECs and human adult DMVECs were split into Gelatin-coated 96 wells (2000 cells per well) in low glucose DMEM containing 10% FBS. 1200 cells/well was set up for proliferation assay in low glucose media containing FBS. Data was collected at day 4 or 5. HUVEC (p7-10) were grown on gelatin-coated plate until it reached 70-80% confluency.

Data set [2] concerns αv integrin, Neuropilin-1, VE-cadherin and bFGFR1. Put plainly: Protein mass of other N-glycosylated proteins in BCEC. It counts as cell-based, bovine. On the procedure:
Cells were allowed to reach 80% confluency in 12-well plates. […] At various time points, plates were taken out of the incubator and kept on ice. Cell monolayers were first washed once with ice-cold PBS before lysis with 250 μl of Pierce RIPA buffer (ThermoFisher Scientific, Rockford, IL) or use 50 mM Tris-HCl (pH 7.6), 150 mM NaCl, 10% Glycerol, 1% NP-40 containing protease/Phosphatase inhibitor cocktail (100×) (Cell signaling, #5872). Lysates were collected and mixed with 4×Bolt LDS Sample Buffer (Novex, Carlsbad, CA) in the presence of Halt protease inhibitors and phosphatase inhibitor cocktail (ThermoFisher scientific, #NP0007). The samples were subjected to SDS-PAGE (Bolt 4-12% Bis-Tris Plus, Invitrogen) using Bolt MES SDS running buffer or NuPAGE 3-8% Tris-Acetate gel using Tris-Acetate SDS running buffer (Novex). HUVECs (passage 6-8) were plated in EBM-2 basal medium (Lonza) with 0.2% FBS. […] Equal amounts of protein lysates were analyzed by SDS-PAGE and blotted with the indicated antibodies. Proteins were transferred using Tris-Glycine buffer with 20% Methanol (Proteonomics grade) (Apex BioResearch Products). Membranes were first incubated with 5% milk in TBST, pH 7.6 (TEKnova, Hollister, CA), followed by blotting with primary and secondary antibodies. […]

The next data set deals with 4T1 cells. Put plainly: 4T1 proliferation assay (MTS). It counts as cell-based, mouse.
The test system of the next data set is NIH3T3 fibroblasts. Put plainly: NIH3T3 proliferation assay. It counts as cell-based, mouse. The note with it: alone or in combination with growth factors. On the procedure: (§1) Proliferation assays with fibroblasts were done in low-glucose DMEM containing 1% FBS, with or without 10 ng/ml bFGF, or 100 ng/ml human EGF and the assay was ended at day 3. ARPE-19 cells were gently lifted with 0.025% trypsin and plated in RtEGM media (Clonetics) containing 2% FBS, L-glutamine, human bFGF and GA-1000. Once cells were attached to plates, serum-free RtEGM media was used to maintain the cultures. For proliferation assays, 1500 human RPE cells were plated into 96-well plates in low-glucose DMEM containing 1% FBS. A673, U87MG, Calu6 and AML12 cells were grown until confluent and were then harvested and re-suspended in appropriate assay media. For proliferation assays, cells were plated at the density of 1000-2000 cells/well in low-glucose DMEM containing 5% FBS or otherwise stated. Bovine pituitary cells (pituitary folliculostellate cells) were isolated as previously described. For proliferation assays with human epidermal keratinocytes, human DMVECs and human dermal fibroblast cells, 1000 cells/well were plated in low-glucose DMEM containing 1% FBS with or without various growth factors. The assay was ended at day 3 for bovine pituitary cells and at day 4 for all the other cell types. […] Four days later, tumor cell growth was measured by the MTS assay (Promega, Madison, WI), a colorimetric assay that measures metabolic activity of viable cells. […]

For another data set, the system named is human dermal fibroblasts. The data set is described as follows: Human dermal fibroblast proliferation assay. It counts as cell-based. The note with it: alone or in combination with growth factors. On the procedure: as §1
The next data set has as its system skin wound. Put plainly: Skin wound healing model (splinted wound). The note with it: day 4; topical 20 μg daily. It counts as in vivo, mouse. The source says: The model has been previously described. Briefly, C57BL/6 female mice (8-10 weeks old) were obtained from Jackson labs (Sacramento, CA). A fresh, full-thickness punch wound (4 mm diameter) using a punch (Acu Punch, Acuderm inc. Ft. Lauderdale, FL) splinted with a sterile neoprene ring (6-mm outer diameter and 4-mm inner diameter), fastened with 5-6 sutures (4-0 nylon) under the influence of Isoflurane was created on the back of the animal in a Class II Biological Safety Cabinet. For all surgical procedures, sterile technique was followed. Buprenorphine was given subcutaneously prior to awakening from anesthesia for anticipated pain. Mice were monitored until fully awake and were housed individually to minimize damage/biting/fighting to the surgical site. […] Treatment agents were prepared in PBS, sterile-filtered and 25 μl solution was applied daily directly to a wound bed for the first 4-5 days under the influence of Isoflurane, followed by daily observation. Wound closure was monitored by regular imaging and the wound area was quantified using ImageJ (National Institutes of Health, Bethesda, MD, USA). […] Epithelial gap was measured histomorphometrically using AxioVision LE Rel.4.4 software. […] Small vessels stained positive for CD31 were counted microscopically on 10 fields (20×) taken around the wound.

For `N[C@H](C=O)[C@@H](O)[C@H](O)[C@H](O)CO` [ManN, 2-Amino-2-deoxy-D-mannose], in data set [1], the “additive effects in promoting BREC proliferation” value is given as “Additive effects”. Also, the “protein mass of other N-glycosylated receptors/adhesion molecules” value in data set [2] was “affected as well”. Moreover, the “growth of 4T1” value in the data set on 4T1 cells is reported as “did not promote growth”. In addition, the “toxicity on 4T1 cells” value in the data set on 4T1 cells (at 5 mM) is “significant toxicity”. Also, the “proliferation of NIH3T3 cells” value with NIH3T3 fibroblasts is “no increases in proliferation”. For the same compound, the “proliferation of human dermal fibroblasts” value in the data set on human dermal fibroblasts is given as “no increases in proliferation”. The “average closure of the wound” value in the data set with skin wound amounted to 75.6%.
